Drawing on patent US20230233541A1, “SUBSTITUTED BENZAMIDES AS MODULATORS OF TREX1” (Constellation Pharmaceuticals, Inc., priority 2020, published 2023), this text covers EC50 for 36 compounds.

pEC50: −log10 of the molar value.

One assay has as its target T1, full length human TREX1 (Homo sapiens, UniProt Q9NSU2).
T1 construct: N-terminally His-Tev tagged full length human TREX1; His-Tev (His tag with TEV protease site) (N); made in house; host or cells: E. coli
T1 sequence (Q9NSU2 1-314): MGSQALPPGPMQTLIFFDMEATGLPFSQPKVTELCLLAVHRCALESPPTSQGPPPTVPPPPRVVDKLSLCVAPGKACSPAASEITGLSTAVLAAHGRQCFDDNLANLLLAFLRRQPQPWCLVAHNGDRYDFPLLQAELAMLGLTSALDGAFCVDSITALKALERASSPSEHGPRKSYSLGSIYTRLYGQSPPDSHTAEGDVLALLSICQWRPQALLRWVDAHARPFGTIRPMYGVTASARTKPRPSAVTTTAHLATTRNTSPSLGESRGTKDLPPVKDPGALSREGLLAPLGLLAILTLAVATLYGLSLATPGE
The assay is described as follows: TREX1 Biochemical Assay (fluorescence assay, degradation of dsDNA substrate). The conditions noted are these: 150 pM TREX1, 60 nM dsDNA substrate, 25 minutes at room temperature; read-out: hTREX1 EC50. Here is the method:
Degradation of the dsDNA liberates free fluorophore to produce a fluorescent signal. Specifically, 7.5 μL of N-terminally His-Tev tagged full length human TREX1 (expressed in E. coli and purified in house) in reaction buffer (50 mM Tris (pH 7.4), 150 mM NaCl, 2 mM DTT, 0.1 mg/mL BSA, 0.01% (v/v) Tween-20 and 100 mM MgCl2) was added to a 384-well Black ProxiPlate Plus (Perkin Elmer) which already contained compound (150 nL) at varying concentrations as a 10-point dose-response in DMSO. To this was added 7.5 μL of dsDNA substrate (Strand A: 5′ TEX615/GCT AGG CAG 3′; Strand B: 5′ CTG CCT AGC/IAbRQSp (Integrated DNA Technologies)) in reaction buffer. Final concentrations were 150 pM TREX1, 60 nM dsDNA substrate in reaction buffer with 1.0% DMSO (v/v). After 25 minutes at room temperature, reactions were quenched by the addition of 5 μL of stop buffer (same as reaction buffer plus 200 mM EDTA). Final concentrations in the quenched reaction were 112.5 pM TREX1, 45 nM DNA and 50 mM EDTA in a volume of 20 μL. After a 5-minute incubation at room temperature, plates were read in a laser sourced Envision (Perkin-Elmer), measuring fluorescence at 615 nm following excitation w/570 nm light. IC50 values were calculated by comparing the measured fluorescence at 615 nm ratio relative to control wells pre-quenched w/stop buffer (100% inhibition) and no inhibitor (0% inhibition) controls as using non-linear least square four parameter fits and either Genedata or GraphPad Prism (GraphPad Software, Inc.).

Assay [1] addresses T2, human TREX2 (residues M44-A279) (Homo sapiens, UniProt Q9BQ50).
T2 construct: human TREX2 (residues M44-A279, expressed in E. coli); His-Tev (His tag with TEV protease site) (N); made in house; host or cells: E. coli
T2 sequence (Q9BQ50 44-279 isoform Q9BQ50-1): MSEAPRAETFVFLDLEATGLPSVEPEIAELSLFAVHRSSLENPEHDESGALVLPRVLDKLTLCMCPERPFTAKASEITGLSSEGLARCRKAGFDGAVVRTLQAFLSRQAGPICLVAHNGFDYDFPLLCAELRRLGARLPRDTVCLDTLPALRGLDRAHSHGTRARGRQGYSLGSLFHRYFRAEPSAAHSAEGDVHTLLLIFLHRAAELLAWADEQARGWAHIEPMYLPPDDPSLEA
Kind of assay: TREX2 Biochemical Assay (fluorescence assay, degradation of dsDNA substrate). Conditions: 2.5 nM TREX2, 60 nM dsDNA substrate, 25 minutes at room temperature; read-out: hTREX2 EC50. How it is done:
Degradation of the dsDNA liberates free fluorophore to produce a fluorescent signal. Specifically, 7.5 μL of N-terminally His-Tev tagged human TREX2 (residues M44-A279, expressed in E. coli and purified in house) in reaction buffer (50 mM Tris (pH 7.4), 150 mM NaCl, 2 mM DTT, 0.1 mg/mL BSA, 0.01% (v/v) Tween-20 and 100 mM MgCl2) was added to a 384-well Black ProxiPlate Plus (Perkin Elmer) which already contained compound (150 nL) at varying concentrations as a 10-point dose-response in DMSO. To this was added 7.5 μL of dsDNA substrate (Strand A: 5′ TEX615/GCT AGG CAG 3′; Strand B: 5′ CTG CCT AGC/IAbRQSp (IDT)) in reaction buffer. Final concentrations were 2.5 nM TREX2, 60 nM dsDNA substrate in reaction buffer with 1.0% DMSO (v/v). After 25 minutes at room temperature, reactions were quenched by the addition of 5 μL of stop buffer (same as reaction buffer plus 200 mM EDTA). Final concentrations in the quenched reaction mixture were […] TREX2, 45 nM DNA and 50 mM EDTA in a volume of 20 μL. After a 5-minute incubation at room temperature, plates were read in a laser sourced Envision (Perkin-Elmer), measuring fluorescence at 615 nm following excitation w/570 nm light. IC50 values were calculated by comparing the measured fluorescence at 615 nm ratio relative to control wells pre-quenched w/stop buffer (100% inhibition) and no inhibitor (0% inhibition) controls as using non-linear least square four parameter fits and either Genedata or GraphPad Prism (GraphPad Software, Inc.).

Take `COc1nc(C(=O)O)ccc1CN(Cc1cccc(Cl)c1Cl)C(=O)c1cc(F)cc(F)c1` [Compound 210]: the pEC50 was 5.00 to 6.00 on full length human TREX1 and 4.00 to 5.00 in assay [1].

In the case of `O=C(O)c1ccc(CN(Cc2cccc(Cl)c2Cl)C(=O)c2cccc(F)c2)cn1` [Compound 147], the negative logarithm of the EC50 (pEC50) on full length human TREX1 is above 7.00; in assay [1], 5.00 to 6.00.

For the compound `O=C(c1cccc(F)c1)N(Cc1ccc(C(F)(F)F)nc1)Cc1ccc(Cl)cc1Cl` [Compound 105], the figures for the negative logarithm of the EC50 (pEC50) (on full length human TREX1; in assay [1]) were below 5.00 and below 4.00, respectively.

Regarding `O=C(c1cc(F)cc(F)c1)N(Cc1cnccc1Cl)Cc1cnccc1Cl` [Compound 176], the pEC50 at full length human TREX1 is 6.00 to 7.00; in assay [1], 5.00 to 6.00.

Consider `CC[C@@H](c1ccc(OC)c(OC)c1Cl)N(Cc1ccc(C(=O)O)nc1)C(=O)c1cc(F)cc(F)c1` [Compound 227], for which the values for the negative-log EC50 (pEC50) (at full length human TREX1; in assay [1]) were above 7.00 and 5.00 to 6.00, respectively.

For the compound `O=C(c1cccc(F)c1)N(Cc1cccnc1)[C@H](CO)c1ccc(Cl)cc1Cl` (single isomer, unassigned) [Compound 162], the negative logarithm of the EC50 (pEC50) at full length human TREX1 is 6.00 to 7.00; in assay [1], 4.00 to 5.00.

With `O=C(C1CCOCC1)N(Cc1cccnc1)Cc1ccc(Cl)cc1Cl` [Compound 89], the results for the pEC50 (on full length human TREX1; in assay [1]) were below 5.00 and below 4.00, respectively.

Consider `COc1cccc([C@H](C)N(Cc2ccc(-c3ccn[nH]3)nc2)C(=O)c2cc(F)cc(F)c2)c1Cl` [Compound 224], for which the figures for the negative-log EC50 (pEC50) (on full length human TREX1; in assay [1]) were 5.00 to 6.00 and 4.00 to 5.00, respectively.

With `O=C(c1cc(F)cc(F)c1)N(Cc1cnc2c(=O)[nH]cnc2c1)Cc1ccccc1Cl` [Compound 183], the negative-log EC50 (pEC50) on full length human TREX1 is 6.00 to 7.00; in assay [1] it was 4.00 to 5.00.

For `COc1cc(Br)cc(C(=O)N(Cc2cccnc2)Cc2cc(Cl)cc(Cl)c2)c1` [Compound 52], the pEC50 on full length human TREX1 was below 5.00; in assay [1], below 4.00.

With `O=C(O)c1ccc(CN(Cc2cccc(Cl)c2Cl)C(=O)c2cc(F)cc(F)c2)cn1` [Compound 148], the negative-log EC50 (pEC50) was above 7.00 on full length human TREX1 and above 6.00 in assay [1].

Consider `O=C(O)c1ccc(CN(Cc2cccc(Cl)c2Cl)C(=O)c2cc(F)cc(F)c2)c(O)n1` [Compound 247], for which the pEC50 is 6.00 to 7.00 on full length human TREX1 and 4.00 to 5.00 in assay [1].

As for `C[C@H](c1cccnc1)N(Cc1ccc(Cl)cc1Cl)C(=O)c1cccc(F)c1` (single isomer, unassigned) [Compound 153], the pEC50 at full length human TREX1 was below 5.00; in assay [1], below 4.00.

Turning to `O=C(c1cccc(Cl)c1)N(Cc1cccnc1)Cc1ccc(Cl)cc1Cl` [Compound 5], the negative logarithm of the EC50 (pEC50) at full length human TREX1 is 5.00 to 6.00; in assay [1], below 4.00.

For the compound `O=C(O)c1ccc(CN(Cc2ccnc(Cl)c2Cl)C(=O)c2cc(F)cc(F)c2)cn1` [Compound 201], the pEC50 on full length human TREX1 was above 7.00; in assay [1], 5.00 to 6.00.

On to `COc1cccc(CN(Cc2cccnc2)C(=O)c2cccc(F)c2)c1Cl` [Compound 127], for which the pEC50 is 5.00 to 6.00 on full length human TREX1 and below 4.00 in assay [1].

Regarding `Cn1cc(CN(Cc2ccc(Cl)cc2Cl)C(=O)c2cccc(F)c2)cn1` [Compound 112], the values for the pEC50 (on full length human TREX1; in assay [1]) were below 5.00 and below 4.00, respectively.

`O=C(c1cccc(F)c1)N(Cc1ccccc1)Cc1ccc(Cl)cc1Cl` [Compound 96]: the pEC50 at full length human TREX1 is below 5.00; in assay [1] it was below 4.00.

`N#CC[C@@H](c1cccc(Cl)c1Cl)N(Cc1cccnc1)C(=O)c1cc(F)cc(F)c1` [Compound 234]: the figures for the pEC50 (on full length human TREX1; in assay [1]) were 5.00 to 6.00 and 4.00 to 5.00, respectively.

As for `O=C(c1ccc(Cl)cc1O)N(Cc1cccnc1)Cc1cc(Cl)cc(Cl)c1` [Compound 45], the pEC50 at full length human TREX1 is below 5.00; in assay [1], below 4.00.

On to `O=C(c1cccc(-c2ccccc2)c1)N(Cc1cccnc1)Cc1ccc(Cl)cc1Cl` [Compound 43], for which the values for the negative-log EC50 (pEC50) (on full length human TREX1; in assay [1]) were below 5.00 and below 4.00, respectively.

`CC(C)c1ccc(C(=O)N(Cc2cccnc2)Cc2cc(Cl)cc(Cl)c2)cc1` [Compound 51]: the negative logarithm of the EC50 (pEC50) at full length human TREX1 was below 5.00; in assay [1], below 4.00.

Take `CN(C)c1cc(CN(Cc2cccc(Cl)c2Cl)C(=O)c2cc(F)cc(F)c2)cnc1C(=O)O` [Compound 243]: the pEC50 on full length human TREX1 was 5.00 to 6.00; in assay [1], 4.00 to 5.00.

For `O=C(c1ccc(Cl)c(Cl)c1)N(Cc1cccnc1)Cc1cc(Cl)cc(Cl)c1` [Compound 75], the values for the pEC50 (at full length human TREX1; in assay [1]) were below 5.00 and below 4.00, respectively.

Regarding `Cc1cc(-c2ccc(CN(Cc3ccccc3Cl)C(=O)c3cc(F)cc(F)c3)cn2)[nH]n1` [Compound 219], the pEC50 on full length human TREX1 is 5.00 to 6.00; in assay [1] it was 4.00 to 5.00.

As for `CC(C)Oc1ccc(C(=O)N(Cc2cccnc2)Cc2cc(Cl)cc(Cl)c2)cc1` [Compound 54], the values for the negative logarithm of the EC50 (pEC50) (on full length human TREX1; in assay [1]) were below 5.00 and below 4.00, respectively.

For `O=C(O)c1ccc(CN(Cc2ccc(Cl)cc2Cl)C(=O)c2cc(F)cc(F)c2)cc1` [Compound 168], the negative-log EC50 (pEC50) is 5.00 to 6.00 at full length human TREX1 and 4.00 to 5.00 in assay [1].

Take `O=C(O)c1cc(CO)c(CN(Cc2cccc(Cl)c2Cl)C(=O)c2cc(F)cc(F)c2)cn1` [Compound 206]: the pEC50 on full length human TREX1 is above 7.00; in assay [1], 4.00 to 5.00.

`O=C(c1ccc(Cl)cc1Br)N(Cc1cccnc1)Cc1cc(Cl)cc(Cl)c1` [Compound 63]: the results for the pEC50 (on full length human TREX1; in assay [1]) were below 5.00 and below 4.00, respectively.

For `O=C(c1cccc(F)c1)N(Cc1cccnc1)C1Cc2ccccc2C1` [Compound 134], the negative-log EC50 (pEC50) was below 5.00 on full length human TREX1 and below 4.00 in assay [1].

Turning to `O=C(O)CC[C@H](c1ccccc1Cl)N(Cc1cccnc1)C(=O)c1cc(F)cc(F)c1` [Compound 245], the pEC50 on full length human TREX1 is 5.00 to 6.00; in assay [1] it was 4.00 to 5.00.

Take `CC[C@H](c1cccc(OC)c1Cl)N(Cc1ccc(C(=O)O)nc1)C(=O)c1cc(F)cc(F)c1` [Compound 166]: the negative logarithm of the EC50 (pEC50) at full length human TREX1 was above 7.00; in assay [1], 5.00 to 6.00.

For the compound `O=C(O)c1ccc(CN(Cc2ccc(Cl)cc2Cl)C(=O)c2cccc(F)c2)cn1` [Compound 142, 5-({N-[(2,4-dichlorophenyl)methyl]-1-(3-fluorophenyl)formamido}methyl)pyridine-2-carboxylic acid], the pEC50 on full length human TREX1 was 6.00 to 7.00; in assay [1], 4.00 to 5.00.

Turning to `CC[C@H](c1cccc(OC2COC2)c1Cl)N(Cc1ccc(C(=O)O)nc1)C(=O)c1cc(F)cc(F)c1` [Compound 231], the pEC50 at full length human TREX1 is 6.00 to 7.00; in assay [1] it was 5.00 to 6.00.

As for `O=C(O)c1ccc(CN(Cc2ccccc2C(F)(F)F)C(=O)c2cc(F)cc(F)c2)cn1` [Compound 172], the values for the pEC50 (on full length human TREX1; in assay [1]) were above 7.00 and 5.00 to 6.00, respectively.

As for `Cc1ncc(CN(Cc2ccc(Cl)cc2Cl)C(=O)c2cccc(F)c2)cn1` [Compound 108], the negative-log EC50 (pEC50) was below 5.00 at full length human TREX1 and below 4.00 in assay [1].
